Assay results: PMC12117998, “First Steps toward the Design of Peptides that Influence the Intracellular Palmitoylation Machinery” (Chembiochem, 2025)
No end group written: not given here.

Tests used:
human 6His‐ZDHHC7 = target: T1, human 6His‐ZDHHC7 (Homo sapiens, UniProt Q9NXF8); assay: In vitro palmitoylation assay (LC‐MS); type: biochemical; details: 50 μM CF‐labeled peptide, 37 °C, LC‐MS (Figure 4)
T1 construct: 6His; purchased Proteintech
T1 sequence (Q9NXF8 1-308): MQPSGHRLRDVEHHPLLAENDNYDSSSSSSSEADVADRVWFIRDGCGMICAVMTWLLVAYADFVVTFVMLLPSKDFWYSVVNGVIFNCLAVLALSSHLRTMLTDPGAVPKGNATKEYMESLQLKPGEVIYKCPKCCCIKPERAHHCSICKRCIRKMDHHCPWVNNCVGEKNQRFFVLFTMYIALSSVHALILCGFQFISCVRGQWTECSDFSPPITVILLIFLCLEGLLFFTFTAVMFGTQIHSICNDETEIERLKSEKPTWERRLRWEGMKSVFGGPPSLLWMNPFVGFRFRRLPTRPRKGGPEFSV
Procedure: The 50 μM CF‐labeled peptides were incubated with 100 nM human 6His‐ZDHHC7 (Proteintech) and 100 μM palmitoyl‐CoA (Santa Cruz Biotechnology) in reaction buffer (50 mM HEPES, 150 mM NaCl, 1 mM EDTA, 1 mM (tris(2‐carboxyethyl)phosphine) (TCEP), 0.3 mM DDM, pH 7.0) for 2 h at 37 °C. Control reactions without ZDHHC7 or palm‐CoA were incubated with the appropriate volume of reaction buffer. Afterward, the reaction was centrifuged for 5 min at 13000 rpm. The precipitate was dissolved in DMSO/ACN (3:2, v/v). To enrich the peptide from the supernatant, C8 ZipTips were used. All samples were analyzed on the LC MS‐8060 triple quadrupole ESI‐MS (Shimadzu). The fluorescence intensity (λex = 493 nm, λem = 517 nm) of the samples was measured on an EC 160/2 NUCLEODUR 300‐5 C18 ec column using linear gradients from 20% to 70 % ACN in ddH2O + 0.1% FA over 7 min.

HFF‐1 cells = assay: Cell viability assay (resazurin); type: cell-based, human; details: HFF‐1, 24 h, CF‐labeled peptides, n = 3 (Figure 3C)
Procedure: (§1) HeLa (13,000), MDA‐MB‐231 (26,000), HFF‐1 (16,000) cells, mEGFP‐HRas (18,000), and SW480 and SW620 (15,000) were seeded into a 96‐well plate. Cells were treated with suitable peptide concentrations diluted in the corresponding serum‐free culture medium. After 24 h incubation under standard growth conditions, the cells were washed once with PBS. The positive control was treated for 10 min with 70% EtOH. To test the viability, cells were treated with a resazurin solution (In Vitro Toxicology Assay Kit, resazurin based, Sigma) and incubated for a further 1–2 h. The product resorufin was measured at 595 nm (λex = 550 nm) on an infinite M200 plate reader (Tecan) and normalized to the untreated negative control cells.

HeLa cells [1] = assay: Cellular uptake by flow cytometry; type: cell-based
Procedure: HeLa (90,000), MDA‐MB‐231 (120,000), and HFF‐1 (125,000) cells were seeded into a 24‐well plate. Cells were treated with the desired concentration of CF‐labeled peptide diluted in the appropriate serum‐free medium for 30 min at 37 °C and 5% CO2. Afterward, cells were washed once with PBS, detached from the plate using indicator‐free trypsin/EDTA and resuspended in indicator‐free culture medium. The cell mixture was measured on the Guava easyCyte flow cytometer (Merck) using the GRN‐B (520/30) detector.
CMA was synthesized and kindly provided by Azizi et al.^[ [33] ^] Cells were either treated with 20 μM CMA diluted in serum‐free media or 0.1% DMSO diluted in serum‐free media for 6 h at 37 °C with 5% CO2. Next, cells were washed once with serum‐free medium and 5 μM CF‐labeled peptides diluted in serum‐free medium were incubated for 30 min. Control cells were only treated with dimethylsulfoxide (DMSO) or 20 μM CMA.
For the preincubation assay, cells were either treated with 5 μM DC‐2 diluted in serum‐free medium or only serum‐free medium for 30 min at 37 °C and 5% CO2. Afterward, cells were washed once with serum‐free medium and treated with 5 μM CF‐labeled DC‐2 for 30 min at 37 °C and 5% CO2.
To block cell surface thiols, cells were incubated with either serum‐free medium or 1.2 mM 5,5′‐dithiobis‐(2‐nitrobenzoic acid) (Ellman's reagent, DTNB) diluted in serum‐free medium for 5 min. Next, untreated cells were treated with 1 μM of CF‐labeled DC‐2 or DC‐2dis diluted in serum‐free medium and DTNB‐pretreated cells with 1 μM of CF‐labeled DC‐2 or DC‐2dis and 1.2 mM DTNB in serum‐free medium for 30 min at 37 °C and 5% CO2 as described by Aubry et al.^[ [47] ^]

HeLa cells [2] = assay: Cell viability assay (resazurin); type: cell-based; details: 24 h, CF‐labeled peptides, n = 3 (Figure 3A)
Procedure: as §1

HeLa mEGFP‐HRas cells = assay: Cell viability assay (resazurin); type: cell-based; details: 24 h, n = 3 (Figure S11A)
Procedure: as §1

MDA‐MB‐231 = assay: Cell viability assay (resazurin); type: cell-based; details: MDA‐MB‐231, 24 h, CF‐labeled peptides, n = 3 (Figure 3B)
Procedure: as §1

GLRKRLRKFRNKKMDHHCPW-NH2 [DC‐2, CPP sC18* fused to the DHHC motif derived from ZDHHC2/3/6/7/15/16/20]
palmitoylation in presence of ZDHHC7 (human 6His‐ZDHHC7; 100 nM ZDHHC7, 100 μM palmitoyl‐CoA, pH 7.0, 2 h): palmitoylated
palmitoylation in absence of ZDHHC7 (auto‐palmitoylation) (human 6His‐ZDHHC7; 100 μM palmitoyl‐CoA, no ZDHHC7, pH 7.0, 2 h): auto‐palmitoylation
cytotoxicity (cell viability) (HFF‐1 cells): most active peptide
effect of blocking cell surface thiols (DTNB) on cellular uptake (HeLa cells [1]; 5 min 1.2 mM DTNB, then 1 μM CF‐labeled peptide with DTNB 30 min, flow cytometry, n = 3 (Figure S8C)): no significant difference
effect of pretreatment with unlabeled DC‐2 on peptide uptake (HeLa cells [1]; 30 min 5 μM unlabeled DC‐2, then 30 min 5 μM CF‐DC‐2, flow cytometry, n = 3 (Figure S5E)): no significant difference in the quantity of peptide uptake
cellular uptake in medium lacking L‐cystine (HeLa cells [1]; 30 min, 5 µM CF-DC-2, flow cytometry, n = 3 (Figure S8B)): slightly increased
cellular uptake (in words) (HeLa cells [1]; 30 min, 5 μM CF‐labeled peptides, serum-free medium, 37 °C, flow cytometry, n ≥ 3 (Figure 3D, 5C)): internalized to a higher extent compared to DC‐4
cytotoxicity (cell viability) (HeLa cells [2]): most active peptide
cytotoxicity at 100 μM (HeLa mEGFP‐HRas cells): did not harm the cells
cytotoxicity (cell viability) (MDA‐MB‐231): most active peptide
